# Test results taken from ChEMBL document CHEMBL5465560, “Selectivity Literature for EUbOPEN Chemogenomic Library” (2024).
# Legend:
# [1] = target: Serine/threonine-protein kinase Nek6 (Homo sapiens) (UniProt Q9HC98); conditions: at 10 µM
# [2] = target: T1, Testis-specific serine/threonine-protein kinase 1 (Homo sapiens) (UniProt Q9BXA7); conditions: at 10 µM
# T1 sequence (whole entry): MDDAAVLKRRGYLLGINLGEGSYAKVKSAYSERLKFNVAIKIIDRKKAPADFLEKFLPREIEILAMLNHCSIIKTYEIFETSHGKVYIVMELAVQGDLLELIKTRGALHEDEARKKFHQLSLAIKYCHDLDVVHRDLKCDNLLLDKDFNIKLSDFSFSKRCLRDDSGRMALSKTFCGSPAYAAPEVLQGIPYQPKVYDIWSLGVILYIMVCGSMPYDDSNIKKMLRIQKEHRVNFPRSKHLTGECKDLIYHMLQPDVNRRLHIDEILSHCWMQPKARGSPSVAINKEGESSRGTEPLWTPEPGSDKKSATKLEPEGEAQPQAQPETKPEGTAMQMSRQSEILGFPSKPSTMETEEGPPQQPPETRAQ
# [3] = target: T2, Protein kinase C epsilon type (Homo sapiens) (UniProt Q02156); experiment: Selectivity interaction (KinomeScan (DiscoverX)) EUB0001049a PRKCE; conditions: at 1 µM
# T2 sequence (whole entry): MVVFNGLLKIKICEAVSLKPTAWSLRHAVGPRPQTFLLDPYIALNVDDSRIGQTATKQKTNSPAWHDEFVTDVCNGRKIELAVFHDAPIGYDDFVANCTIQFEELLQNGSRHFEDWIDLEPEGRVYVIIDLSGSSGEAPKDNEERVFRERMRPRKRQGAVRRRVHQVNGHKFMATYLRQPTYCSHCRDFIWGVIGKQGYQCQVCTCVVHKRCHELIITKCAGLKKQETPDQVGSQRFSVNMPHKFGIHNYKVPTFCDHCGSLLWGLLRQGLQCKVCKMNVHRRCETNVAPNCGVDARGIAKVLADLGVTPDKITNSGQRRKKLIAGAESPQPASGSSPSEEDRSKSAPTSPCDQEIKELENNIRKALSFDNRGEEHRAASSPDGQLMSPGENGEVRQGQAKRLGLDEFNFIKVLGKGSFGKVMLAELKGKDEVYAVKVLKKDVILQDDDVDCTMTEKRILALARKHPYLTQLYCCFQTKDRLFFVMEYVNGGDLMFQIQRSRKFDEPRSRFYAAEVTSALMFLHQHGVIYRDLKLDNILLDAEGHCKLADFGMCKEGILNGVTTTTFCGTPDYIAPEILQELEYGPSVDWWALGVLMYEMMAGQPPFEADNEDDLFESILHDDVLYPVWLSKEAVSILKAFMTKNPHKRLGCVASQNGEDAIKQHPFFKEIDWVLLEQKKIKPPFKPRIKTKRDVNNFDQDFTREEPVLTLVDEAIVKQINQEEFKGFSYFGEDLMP
# [4] = target: T3, Protein kinase C zeta type (Homo sapiens) (UniProt Q05513); experiment: Selectivity interaction (Upstate Kinase Profiler service (Millipore)) EUB0000056c PRKCZ; conditions: at 1 µM
# T3 sequence (whole entry): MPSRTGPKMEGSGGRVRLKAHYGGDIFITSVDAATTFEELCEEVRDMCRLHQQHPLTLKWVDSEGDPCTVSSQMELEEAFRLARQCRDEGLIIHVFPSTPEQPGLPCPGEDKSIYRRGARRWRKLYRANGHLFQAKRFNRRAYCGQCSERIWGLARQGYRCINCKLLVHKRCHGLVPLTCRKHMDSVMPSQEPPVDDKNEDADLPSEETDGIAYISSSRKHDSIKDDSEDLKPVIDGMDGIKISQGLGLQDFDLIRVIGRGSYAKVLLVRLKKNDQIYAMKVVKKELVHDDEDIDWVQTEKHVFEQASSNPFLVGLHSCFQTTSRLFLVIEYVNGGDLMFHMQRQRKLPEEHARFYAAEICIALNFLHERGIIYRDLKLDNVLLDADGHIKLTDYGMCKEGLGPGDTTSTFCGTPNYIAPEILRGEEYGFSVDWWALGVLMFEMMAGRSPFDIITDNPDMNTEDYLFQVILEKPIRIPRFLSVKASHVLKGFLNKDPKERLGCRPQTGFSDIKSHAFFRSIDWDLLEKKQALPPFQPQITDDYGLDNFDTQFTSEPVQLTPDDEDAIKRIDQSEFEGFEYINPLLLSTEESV
# [5] = Selectivity interaction (Inhibition of ex vivo anti-IgM/IL-4 -induced proximal pAKT formation in rats) EUB0000877a PIK3CD
# [6] = target: PXR (NR1I2) (Homo sapiens, UniProt O75469); experiment: Selectivity interaction (Panel of kinases, GPCRs, ion channels and transporters (enzymatic assay)) EUB0000223bCl NR1I2
# [7] = target: ALK tyrosine kinase receptor (Homo sapiens, UniProt Q9UM73); experiment: Selectivity interaction (KinomeScan (DiscoverX)) EUB0000607a ALK; conditions: at 10 µM
# [8] = target: Mitogen-activated protein kinase kinase kinase 20 (Homo sapiens) (UniProt Q9NYL2); experiment: Selectivity interaction (ActivX KiNativ screen (kinase selectivity in THP-1 cell lysates)) EUB0000639a MAP3K20; type: subcellular; conditions: lysate
# [9] = target: RAC-gamma serine/threonine-protein kinase (Homo sapiens, UniProt Q9Y243); experiment: Selectivity interaction (KinomeScan (DiscoverX)) EUB0000655a AKT3; conditions: at 10 µM
# [10] = target: Serine/threonine-protein kinase mTOR (Homo sapiens, UniProt P42345); conditions: at 10 µM
# [11] = target: Leukocyte tyrosine kinase receptor (Homo sapiens, UniProt P29376); experiment: Selectivity interaction (KinomeScan (DiscoverX)) EUB0000092b LTK; conditions: at 10 µM
# [12] = target: Calcium/calmodulin-dependent protein kinase type 1D (Homo sapiens) (UniProt Q8IU85); experiment: Selectivity interaction (Ambit KINOMEscan and KiNATiv profiling in Jurkat cells) EUB0000090b CAMK1D; type: cell-based; conditions: at 1 µM
# Sequence of Calcium/calmodulin-dependent protein kinase type 1D (Homo sapiens) (Q8IU85 whole entry, looked up): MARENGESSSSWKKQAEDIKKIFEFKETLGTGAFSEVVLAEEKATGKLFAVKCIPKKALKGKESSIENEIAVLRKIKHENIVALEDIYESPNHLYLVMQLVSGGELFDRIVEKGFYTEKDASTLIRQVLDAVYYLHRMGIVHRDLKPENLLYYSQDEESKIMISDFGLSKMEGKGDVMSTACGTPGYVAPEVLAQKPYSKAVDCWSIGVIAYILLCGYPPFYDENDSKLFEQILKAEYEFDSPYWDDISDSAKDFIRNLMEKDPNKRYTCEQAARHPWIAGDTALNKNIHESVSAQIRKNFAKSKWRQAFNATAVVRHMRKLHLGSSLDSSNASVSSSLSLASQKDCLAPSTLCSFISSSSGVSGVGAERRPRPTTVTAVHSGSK
# Sequence of Mitogen-activated protein kinase kinase kinase 20 (Homo sapiens) (Q9NYL2 2-800 limits assumed): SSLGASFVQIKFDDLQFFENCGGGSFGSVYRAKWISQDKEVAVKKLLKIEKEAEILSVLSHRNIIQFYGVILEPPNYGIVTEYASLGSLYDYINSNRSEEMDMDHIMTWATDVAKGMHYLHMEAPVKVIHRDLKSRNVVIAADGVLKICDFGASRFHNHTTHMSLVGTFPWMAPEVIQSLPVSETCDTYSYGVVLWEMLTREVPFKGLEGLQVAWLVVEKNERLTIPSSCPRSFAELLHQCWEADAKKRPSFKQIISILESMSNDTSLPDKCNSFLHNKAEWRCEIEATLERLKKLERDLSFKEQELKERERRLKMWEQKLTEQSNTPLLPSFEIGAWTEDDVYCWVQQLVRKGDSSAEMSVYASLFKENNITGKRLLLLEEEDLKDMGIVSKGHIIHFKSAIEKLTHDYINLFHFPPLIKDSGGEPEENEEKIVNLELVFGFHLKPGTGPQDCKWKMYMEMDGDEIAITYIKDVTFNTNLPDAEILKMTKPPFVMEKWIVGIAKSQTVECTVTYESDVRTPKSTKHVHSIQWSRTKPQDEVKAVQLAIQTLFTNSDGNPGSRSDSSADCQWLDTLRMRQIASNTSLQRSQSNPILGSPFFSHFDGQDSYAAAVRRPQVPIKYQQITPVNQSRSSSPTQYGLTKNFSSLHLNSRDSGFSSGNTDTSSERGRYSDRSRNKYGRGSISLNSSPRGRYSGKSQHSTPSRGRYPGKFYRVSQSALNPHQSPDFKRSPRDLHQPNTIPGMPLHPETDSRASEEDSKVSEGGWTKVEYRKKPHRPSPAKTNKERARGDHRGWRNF
# Sequence of Serine/threonine-protein kinase Nek6 (Homo sapiens) (Q9HC98 whole entry): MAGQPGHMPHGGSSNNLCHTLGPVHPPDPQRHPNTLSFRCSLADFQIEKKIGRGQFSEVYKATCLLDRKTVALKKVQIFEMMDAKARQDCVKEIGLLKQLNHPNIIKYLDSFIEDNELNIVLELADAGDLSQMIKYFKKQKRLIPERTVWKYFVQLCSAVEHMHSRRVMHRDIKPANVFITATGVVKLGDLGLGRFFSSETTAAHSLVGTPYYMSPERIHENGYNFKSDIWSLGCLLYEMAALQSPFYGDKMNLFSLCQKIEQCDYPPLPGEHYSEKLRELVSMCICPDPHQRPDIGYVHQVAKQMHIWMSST
# Sequence of ALK tyrosine kinase receptor (Q9UM73 19-1620 limits assumed): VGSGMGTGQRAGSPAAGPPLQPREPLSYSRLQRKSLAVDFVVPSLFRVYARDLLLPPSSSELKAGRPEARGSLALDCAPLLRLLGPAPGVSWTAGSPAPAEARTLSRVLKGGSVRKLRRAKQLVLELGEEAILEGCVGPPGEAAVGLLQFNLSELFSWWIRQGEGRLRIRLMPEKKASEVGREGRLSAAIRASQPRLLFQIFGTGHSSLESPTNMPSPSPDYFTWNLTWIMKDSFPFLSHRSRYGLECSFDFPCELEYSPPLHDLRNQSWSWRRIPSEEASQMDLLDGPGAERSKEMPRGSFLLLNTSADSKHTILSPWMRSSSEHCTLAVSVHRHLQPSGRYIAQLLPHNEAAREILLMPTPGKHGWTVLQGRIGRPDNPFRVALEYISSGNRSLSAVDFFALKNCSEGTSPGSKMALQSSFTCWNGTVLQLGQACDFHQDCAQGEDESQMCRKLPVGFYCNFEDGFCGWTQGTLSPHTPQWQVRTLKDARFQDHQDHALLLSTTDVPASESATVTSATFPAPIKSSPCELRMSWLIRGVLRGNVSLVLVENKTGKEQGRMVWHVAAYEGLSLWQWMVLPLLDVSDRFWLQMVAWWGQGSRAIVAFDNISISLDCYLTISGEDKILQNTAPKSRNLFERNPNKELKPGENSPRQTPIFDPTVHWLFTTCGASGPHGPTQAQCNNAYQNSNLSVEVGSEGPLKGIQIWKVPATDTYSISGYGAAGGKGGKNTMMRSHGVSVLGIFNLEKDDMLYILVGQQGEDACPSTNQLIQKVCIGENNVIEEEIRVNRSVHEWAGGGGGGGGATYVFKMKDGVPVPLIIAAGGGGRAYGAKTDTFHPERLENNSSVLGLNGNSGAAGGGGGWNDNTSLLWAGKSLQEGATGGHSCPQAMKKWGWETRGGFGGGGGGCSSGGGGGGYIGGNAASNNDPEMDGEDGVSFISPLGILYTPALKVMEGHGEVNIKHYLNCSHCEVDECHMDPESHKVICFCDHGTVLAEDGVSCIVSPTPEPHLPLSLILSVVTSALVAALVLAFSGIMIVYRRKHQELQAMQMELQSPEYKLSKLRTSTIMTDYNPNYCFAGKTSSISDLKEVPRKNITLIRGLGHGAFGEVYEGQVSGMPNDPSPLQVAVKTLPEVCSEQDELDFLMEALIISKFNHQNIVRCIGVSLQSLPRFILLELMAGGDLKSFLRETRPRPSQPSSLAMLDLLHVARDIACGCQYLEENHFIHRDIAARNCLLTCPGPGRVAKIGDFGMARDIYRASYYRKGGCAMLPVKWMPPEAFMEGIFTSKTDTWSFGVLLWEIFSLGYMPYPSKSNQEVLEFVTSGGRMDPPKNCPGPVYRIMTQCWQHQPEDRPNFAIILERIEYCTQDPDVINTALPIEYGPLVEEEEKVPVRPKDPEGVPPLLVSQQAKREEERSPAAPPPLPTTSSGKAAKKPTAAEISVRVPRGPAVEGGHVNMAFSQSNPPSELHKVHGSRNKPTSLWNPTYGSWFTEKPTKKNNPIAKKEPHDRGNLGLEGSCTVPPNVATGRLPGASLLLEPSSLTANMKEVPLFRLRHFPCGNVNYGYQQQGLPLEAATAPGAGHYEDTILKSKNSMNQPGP
# Sequence of PXR (NR1I2) (O75469 whole entry): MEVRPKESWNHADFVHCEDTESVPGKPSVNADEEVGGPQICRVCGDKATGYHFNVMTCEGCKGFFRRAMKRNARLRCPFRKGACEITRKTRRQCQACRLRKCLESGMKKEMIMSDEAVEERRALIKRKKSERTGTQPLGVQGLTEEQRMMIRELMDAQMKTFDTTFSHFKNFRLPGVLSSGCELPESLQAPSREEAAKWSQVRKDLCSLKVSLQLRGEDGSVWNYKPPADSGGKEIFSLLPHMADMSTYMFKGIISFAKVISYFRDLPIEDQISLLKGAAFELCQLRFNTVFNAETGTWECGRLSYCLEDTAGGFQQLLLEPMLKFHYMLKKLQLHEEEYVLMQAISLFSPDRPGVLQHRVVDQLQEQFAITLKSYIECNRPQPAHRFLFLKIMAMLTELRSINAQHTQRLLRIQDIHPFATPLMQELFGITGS
# Sequence of RAC-gamma serine/threonine-protein kinase (Q9Y243 whole entry): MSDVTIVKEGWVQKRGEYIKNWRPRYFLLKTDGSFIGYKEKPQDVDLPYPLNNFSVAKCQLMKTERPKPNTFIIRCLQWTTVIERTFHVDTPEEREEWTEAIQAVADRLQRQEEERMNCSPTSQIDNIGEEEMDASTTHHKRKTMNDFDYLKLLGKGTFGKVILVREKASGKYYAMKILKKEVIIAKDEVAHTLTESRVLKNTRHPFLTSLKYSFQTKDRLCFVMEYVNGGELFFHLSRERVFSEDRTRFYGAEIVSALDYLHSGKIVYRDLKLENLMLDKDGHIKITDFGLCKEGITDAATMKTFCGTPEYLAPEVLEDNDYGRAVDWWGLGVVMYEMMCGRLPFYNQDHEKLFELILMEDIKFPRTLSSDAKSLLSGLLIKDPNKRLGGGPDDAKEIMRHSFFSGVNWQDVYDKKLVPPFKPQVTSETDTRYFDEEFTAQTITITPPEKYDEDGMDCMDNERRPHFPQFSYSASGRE
# Sequence of Leukocyte tyrosine kinase receptor (P29376 whole entry): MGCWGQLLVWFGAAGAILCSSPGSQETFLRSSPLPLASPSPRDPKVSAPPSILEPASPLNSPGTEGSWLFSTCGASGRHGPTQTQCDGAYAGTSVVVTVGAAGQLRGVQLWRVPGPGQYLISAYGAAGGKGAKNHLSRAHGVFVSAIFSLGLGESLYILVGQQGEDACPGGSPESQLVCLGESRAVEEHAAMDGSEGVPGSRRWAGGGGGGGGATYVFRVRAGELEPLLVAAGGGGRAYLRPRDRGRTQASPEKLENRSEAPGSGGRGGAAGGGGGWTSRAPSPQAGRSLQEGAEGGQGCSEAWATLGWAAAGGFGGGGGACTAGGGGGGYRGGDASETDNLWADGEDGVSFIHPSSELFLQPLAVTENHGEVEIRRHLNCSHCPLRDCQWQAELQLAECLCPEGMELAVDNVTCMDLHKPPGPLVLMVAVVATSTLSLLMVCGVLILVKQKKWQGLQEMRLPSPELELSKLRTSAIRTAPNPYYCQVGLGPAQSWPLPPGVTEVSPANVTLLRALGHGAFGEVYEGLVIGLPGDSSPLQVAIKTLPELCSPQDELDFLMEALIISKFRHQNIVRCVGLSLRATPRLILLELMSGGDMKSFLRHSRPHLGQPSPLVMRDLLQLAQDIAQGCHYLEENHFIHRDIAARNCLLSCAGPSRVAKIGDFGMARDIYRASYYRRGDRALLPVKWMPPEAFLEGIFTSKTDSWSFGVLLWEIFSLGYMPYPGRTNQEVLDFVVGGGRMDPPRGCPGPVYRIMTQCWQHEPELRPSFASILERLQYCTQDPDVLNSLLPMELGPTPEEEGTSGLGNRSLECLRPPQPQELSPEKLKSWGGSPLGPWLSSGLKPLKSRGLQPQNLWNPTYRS
smiles,measurement,setting,value
COCC(=O)NC/C=C/c1ccc2ncnc(Nc3ccc(Oc4ccc(C)nc4)c(C)c3)c2c1 [CP-724714],% of control,[1],100%
Cc1cc([C@@H](C)Nc2ccccc2C(=O)O)c2nc(N3CCOCC3)cc(=O)n2c1 [AZD-6482],% of control,[2],100%
COc1cc(Nc2nc(C)cc(-c3cnn4nc(OC)ccc34)n2)cc(C(F)(F)F)c1,% of control,[3],100%
Cc1ccc(-c2ccc3c(ccc4sc5c(c43)NC[C@@H](C)NC5=O)n2)cn1,% of inhibition,[4],-8%
CCC(=O)N1CC[C@H](Nc2ncnc3c2CN(c2cnc(OC)c(C(F)(F)F)c2)CC3)C1 [LENIOLISIB],EC50,[5],83 nM
COc1cc(C(=O)N2CC[C@@H](O)[C@@H](N)C2)cc2nc(-c3cc4ccccc4n3CC3CC3)n(C)c12,XC50,[6],> 50100 nM
CNC(=O)Nc1ccc(-c2nc(N3CC4CCC(C3)O4)c3cnn(C4CCC5(CC4)OCCO5)c3n2)cc1,% of control,[7],42%
CC[C@@H]1[C@H](F)C(=O)N[C@@H]1COc1nccc2cc(C(N)=O)c(OC)cc12 [ZIMLOVISERTIB],% of inhibition,[8]; at 0.01 µM,-7.8%
same,% of inhibition,[8]; at 0.04 µM,-3.3%
same,% of inhibition,[8]; at 0.2 µM,9.5%
same,% of inhibition,[8]; at 1 µM,12.2%
same,% of inhibition,[8]; at 5 µM,-6.6%
CN(C)CCOc1ccc(-c2nc(-c3ccncc3)c(-c3ccc4c(c3)CC/C4=N\O)[nH]2)cc1,% of control,[9],97%
CCC(=O)N1CCN(c2ccc(-n3c(=O)ccc4cnc5ccc(-c6cnc7ccccc7c6)cc5c43)cc2C(F)(F)F)CC1,% of control,[10],0%
same,% of control,[11],77%
CN(C)C/C=C/C(=O)Nc1ccc(C(=O)N2CCCC(Nc3ncc(Cl)c(-c4c[nH]c5ccccc45)n3)C2)cc1 (stereo unspecified),% of control,[12],78%
